In patent publication US20190358242A1, “COMPOSITIONS, KITS, AND METHODS TO INDUCE ACQUIRED CYTORESISTANCE USING STRESS PROTEIN INDUCERS” (FRED HUTCHINSON CANCER RESEARCH CENTER, priority 2017, published 2019):

Assays:
HO-1 protein = assay: Kidney HO-1 protein (ELISA); format: in vivo, CD-1 mice
Description: (§1) Thirty-two mice were divided into 4 equal groups: (1) control mice; (2) mice treated with 1 mg of N-Mgb injection (as a bolus through the tail vein); (3) mice treated with […] of SnPP (via tail vein); and (4) mice treated with combined N-Mgb 1 SnPP. After either 4 hours (n=16) or 18 hours (n=16), the mice were deeply anesthetized with pentobarbital (50 mg/kg), the abdomen was opened through a midline abdominal incision, and the kidneys were removed. To determine potential effects on extrarenal organs, a liver lobe and the heart were also removed. The tissues were iced and then extracted for protein and RNA (RNeasy Plus Mini; Qiagen, Valencia, Calif.) and subjected to enzyme linked immunosorbent assay (ELISA) and reverse transcriptase polymerase chain reaction (RT-PCR) for HO-1, haptoglobin, and IL-10 protein and messenger RNAs (mRNAs). Zager et al. J Am Soc Nephrol 2014; 25:998-1012; Zager et al. Am J Physiol 2012; 303:F139-48. As an assessment of renal function, control mice and the 18 hour after N-Mgb+SnPP-treated mice had blood urea nitrogen (BUN) and plasma creatinine levels measured. Additionally, transverse 10% formalin fixed kidney sections ([…]) were cut and stained with hematoxylin and eosin (H&E) and periodic acid Schiff (PAS) to further assess potential injury.

IL-10 protein = assay: Cardiac IL-10 protein (ELISA); format: in vivo, CD-1 mice
Description: as §1

[1] = system: glycerol model of rhabdomyolysis-induced AKI; assay: Glycerol model of rhabdomyolysis-induced AKI; format: in vivo, CD-1 mice; conditions: IV pretreatment 18 h before glycerol; 18 hours after glycerol
Description: Assessments of cytoresistance. Glycerol model of rhabdomyolysis-induced AKI. Twenty mice were divided into 4 equal groups (controls, mice treated with N-Mgb, SnPP, and mice treated with N-Mgb+SnPP tail vein injections) as described previously. 18 hours later, the mice were briefly anesthetized with isoflurane and immediately injected with 9 mL/kg of 50% glycerol, administered in equally divided doses into each hind limb. At 18 hours after glycerol injection, the mice were anesthetized with pentobarbital, the abdomen was opened, a blood sample for BUN and creatinine assessments was obtained from the vena cava, and the kidneys were resected. The control post-glycerol group and the N-Mgb+SnPP-pretreated glycerol group had kidney sections stained with H&E.
To assess whether the previously determined plasma and kidney HO-1 and haptoglobin levels correlated with degrees of cytoresistance, additional mice were injected with 0, 2.5, or 5 mg of N-Mgb […] of SnPP (n=3 mice per group). Eighteen hours later, all mice were subjected to the glycerol AKI model as described previously. Severities of AKI were determined 18 hours after glycerol injection by BUN and plasma creatinine analyses.
Calculations and statistics. All values are given as the mean […] standard error of the mean. Statistical comparisons were made by unpaired Student's t test. […]

maleate model of AKI = assay: Maleate model of AKI (800 mg/Kg), FeS/SnPP and FeS/B12; format: in vivo, CD-1 mice; conditions: IV 18 hrs before 800 mg/Kg maleate; 18 hrs post maleate; 1 mg FeS, 1 μmole SnPP or B12
Text: Effects of Fe sucrose (FeS)/tin protoporphyrin (SnPP) on AKI severity. Maleate model of AKI. When injected into rodents, maleate undergoes relatively selective proximal tubule cell uptake via organic anion transporters. Once intracellular accumulation occurs, maleate is a preferred substrate for succinyl-CoA:3-oxoacid CoA transferase. […] Ample levels of CoA are essential for fatty acid “activation”, allowing for their subsequent metabolism through the Krebs cycle, yielding ATP. In the absence of this process, proximal tubule ATP depletion and cell injury result. Additionally, maleate conjugates the sulfhydryl group of glutathione (GSH), culminating in GSH depletion and potential oxidant tubular stress.
The following experiment tested whether FeS, SnPP or combined FeS+SnPP can mitigate this form of acute kidney injury (AKI). Twenty seven mice were subjected to 200 μL IV tail injections of one of the following: 1) vehicle (phosphate buffered saline, PBS; n, 10); 2) 1 mg FeS (American Regent (Shirley, N.Y.; n, 3); 3) 1 μmole SnPP (Frontier Scientific, Logan, Utah; n 7), or FeS+SnPP, n, 7). […] The severity of kidney injury was assessed by determining plasma blood urea nitrogen (BUN) and plasma creatinine (PCr) concentrations.
Maleate model of AKI. […] The severity of AKI was determined 18 hrs post maleate injection by terminal BUN and PCr assessments.

haptoglobin mRNA = assay: SnPP vs. SnMeP: renal cortical haptoglobin mRNA induction (RT-PCR); format: in vivo, mice; conditions: 1 umole, 4 hrs post injection, n 3
Text: FIG. 28. Comparison of SnPP vs. SnMeP effects on renal cortical HO-1 and haptoglobin mRNA induction 4 hrs post agent injection. Mice received either 1 umole tin protoporphyrin (SnPP), tin mesoporphyrin (SnMeP), or vehicle (n, 3 each) and 4 hrs renal cortical RNA was extracted and subjected to RT-PCR.

[2] = Berglund 1988; Kappas 1988; Reddy 2003; cited from earlier work

SMILES: C=Cc1c2[n-]c(c1C)/C=c1\[n-]/c(c(C)c1C=C)=C\c1[n-]c(c(CCC(=O)O)c1C)/C=c1\[n-]c(c(C)c1CCC(=O)O)=C2.[Sn+4] [SnPP, tin protoporphyrin]
- Renal HO-1 protein increase, in words (HO-1 protein; 18-hour time point, agent alone): only relatively small HO-1 protein increases
- Kidney HO-1 protein (HO-1 protein; 4 h after IV injection, N-Mgb 1 mg, SnPP 1 mmol [sic]): 22.9 ± 2.6
- Kidney protein HO-1 (HO-1 protein; 18 h after IV injection): 18 ± 2
- Cardiac Protein IL-10 (IL-10 protein; 4 h after IV injection): 15.8 ± 10^
- Cardiac protein IL-10 (L-10 [sic]) (IL-10 protein; 18 h after IV injection): 23.4 ± 14^
- Protection against glycerol-induced AKI judged by BUN/creatinine levels [1]: virtually no effect
- Severity of maleate-induced AKI (BUN/PCr), in words (maleate model of AKI): Neither SnPP alone nor FeS alone significantly altered the severity of renal injury
- Renal cortical haptoglobin mRNA induction (haptoglobin mRNA): raised
- Tolerability in humans [2]: well tolerated in humans
